Experiments:
Type in all cases: physicochemical
[1] = Lightfastness test (AATCC Test Method 16-1993 Option E), effect of ultraviolet light
Protocol: In order to determine the effect of ultraviolet light on the de-coloration rate over time of the colorant compositions of the present invention, the colorants were subjected to a lightfastness test. The test was performed according to AATCC Test Method 16-1993 Option E. Comparative Colorants 1-4 were also tested.
The results are provided as DE CMC values and represent the color difference from the standard or control, which was white paper. […] This value for each of the time intervals is then divided by the initial DE CMC value and multiplied by 100.

[2] = Test for pH effect on de-coloration: absorbance in aqueous pH buffer solutions
Protocol: Several 1% solutions of colorant were prepared and added to standard aqueous pH buffer solutions available from VWR and Aldrich to give absorbance of less than one. The colorant solution was tested for absorbance using a DU 7 Spectrophotometer.
In general, the pKa value represents the pH value when approximately half of the colorant is converted to its colorless form. […] “Comparative” is indicated as “Comp.”

[3] = Cellulose powder staining test; settings: on cellulose powder after stirring with deionized water for one minute
Protocol: Colorant 8 was diluted in water to an absorbtivity value of 33.5 A/g/L; then 0.73 parts was dissolved in 5 parts of methanol to give a stock solution A. One part of this solution was mixed with 10 parts of cellulose microcrystalline powder available from Aldrich. The colored powder was dried in a beaker in a 100° C. oven over 20 minutes with occasional stirring. The dry powder was cooled and stirred with 50 parts deionized water for one minute. The slurry was filtered and the filtrate was collected. The percent retention of color on the cellulose powder was calculated from the ratio of the absorbance of one part stock solution A diluted with 50 parts water and the absorbance of the filtrate solution.
The same procedure was used with a stock solution of 0.73 parts dodecenyl succinic ester acid colorant, Inventive Colorant 9, dissolved in 5 ml of methanol. The percent retention of color was determined in the same manner.

[4] = ultraviolet light exposure time 0 hours
[5] = ultraviolet light exposure time 0 hours (initial)
[6] = ultraviolet light exposure time 2 hours
[7] = ultraviolet light exposure time 5 hours
[8] = ultraviolet light exposure time 10 hours
[9] = ultraviolet light exposure time 20 hours
[10] = pH value when approximately half of the colorant is converted to its colorless form

| Compound | Percent Color Fade [1, 4] | DE CMC value (color difference from white paper) [1, 5] | DE CMC value (color difference from white paper) [1, 6] | Percent Color Fade [1, 6] | DE CMC value (color difference from white paper) [1, 7] | Percent Color Fade [1, 7] | DE CMC value (color difference from white paper) [1, 8] | Percent Color Fade [1, 8] | DE CMC value (color difference from white paper) [1, 9] | Percent Color Fade [1, 9] | Absorbance ([2]; aqueous buffer pH 2) | Absorbance ([2]; aqueous buffer pH 4) | Absorbance ([2]; aqueous buffer pH 6) | Absorbance ([2]; aqueous buffer pH 7) | Absorbance ([2]; aqueous buffer pH 8) | Absorbance ([2]; aqueous buffer pH 9) | Absorbance ([2]; aqueous buffer pH 10) | pKa [2, 10] | pKa Value [2, 10] | Percent Color Retention [3] |
| --- | --- | --- | --- | --- | --- | --- | --- | --- | --- | --- | --- | --- | --- | --- | --- | --- | --- | --- | --- | --- |
| CN(C)c1ccc(C(=C2C=CC(=[N+](C)C)C=C2)c2ccccc2)cc1 [Comp. Colorant 4, Basic Green 4, reference compound] | 0% | 44.71 | 14.37 | 67.86% | 13.05 | 70.81% | 9.65 | 78.42% | 5.67 | 87.32% | 0.319 | 0.3843 | 0.4546 | 0.2678 | 0.0538 | 0.0361 | 0.0111 | 7 |  |  |
| 3,4-methylenedioxyphenyl-methyliumylidene-di(4,1-phenyleneamino)N,N-polyethyleneoxy(10), Chloride [Colorant 3] | 0% | 75.15 | 36.95 | 50.83% | 34.25 | 54.42% | 33.39 | 55.57% | 29.45 | 60.81% | 0.9589 | 0.955 | 0.9609 | 0.7309 | 0.2375 | 0.0424 | 0.0199 |  | 7.5 |  |
| CCN(Cc1cccc(S(=O)(=O)[O-])c1)c1ccc(C(=C2C=CC(=[N+](CC)Cc3cccc(S(=O)(=O)[O-])c3)C=C2)c2ccccc2S(=O)(=O)[O-])cc1.[Na+].[Na+] [Comp. Colorant 3, Acid Blue 9, reference compound] | 0% | 58.19 | 52.89 | 9.11% | 49.83 | 14.37% | 46.51 | 20.07% | 40.21 | 30.90% | 0.764 | 0.7699 | 0.7253 |  | 0.7829 |  | 0.804 |  | >10 |  |
| 4-Methylphenyl-methyliumylidene-di(4,1-phenyleneamino)N,N-polyethyleneoxy(10), Chloride [Colorant 4] | 0% | 50.95 | 41.31 | 18.92% | 38.99 | 23.47% | 37.19 | 27.01% | 30.97 | 39.22% | 0.8881 | 0.8878 | 0.8304 | 0.569 | 0.154 | 0.0244 | 0.0079 |  | 7.3 |  |
| Phenyl-methyliumylidene-di(4,1-phenyleneamino)N,N-polyethyleneoxy(5), Chloride [Colorant 8] | 0% | 51.09 | 39.83 | 22.04% | 38.01 | 25.60% | 12.29 | 75.94% | 8.95 | 82.48% |  |  |  |  |  |  |  |  |  | 56% |
| 3-Methoxy-4-Polyethyleneoxide(6)phenyl-methyliumylidene-di(4,1-phenyleneamino)N,N-polyethyleneoxy(10), Chloride [Colorant 5] | 0% | 38.47 | 32.17 | 16.38% | 31.67 | 17.68% | 29.83 | 22.46% | 7.15 | 81.42% | 0.8266 | 0.8269 | 0.7735 | 0.5674 | 0.1928 | 0.0527 | 0.0312 |  | 7.3 |  |
| Phenyl-methyliumylidene-di(4,1-phenyleneamino)N,N-polyethyleneoxy(5)-tetrakisDodecenylsuccinate acid, inner salt [Colorant 9] |  |  |  |  |  |  |  |  |  |  |  |  |  |  |  |  |  |  |  | 92.6% |
| Phenyl-methyliumylidene-di(4,1-phenyleneamino)N,N-polyethyleneoxy(10), Chloride [Colorant 1] |  |  |  |  |  |  |  |  |  |  | 0.95 | 0.95 | 0.82 | 0.35 | 0.05 | 0.005 | 0.005 |  | 6.6 |  |

Source: patent US20080113868A1, “Colorant compositions and their use as pH sensitive color indicators” (priority 2006, published 2008)
